Earlier results, collected in US7956090B2, “Composition and method for increasing the anabolic state of muscle cells” (priority 2007, dated 2011).

Columns and labels:
[1] = about 1.5 g daily after intense exercise for 42 days
[2] = condensation and cyclization upon dissolution in water

| Compound | delayed onset muscle soreness [1] | total lean soft tissue mass [1] | stability in aqueous solution [2] |
| --- | --- | --- | --- |
| CC(C)CC(O)C(=O)O (stereo not drawn) [HICA, 2-hydroxy-4-methylvaleric acid] | little to no delayed onset muscle soreness | statistically significant increase |  |
| CC(=O)C(=O)O [pyruvate, pyruvic acid] |  |  | poor stability |
